The Kinase Knowledgebase extract (Sharma et al. 2016)

biological target: CDK2 (human) (UniProt P24941); assay: Enzyme Assay

SMILES	IC50 [µM]
Cc1n[nH]cc1-c1ccnc(NC2CCN(C)CC2)n1	< 15
COc1ccccc1CNc1nccc(-c2c[nH]nc2C)n1	< 15
Cc1n[nH]cc1-c1ccnc(NCc2ccc(F)cc2)n1	< 10
Cc1n[nH]cc1-c1ccnc(NCCC#N)n1	< 15
CCC(CC)c1[nH]ncc1-c1ccnc(NC2CCN(C)CC2)c1	< 10
COCCNc1cc(-c2cn[nH]c2C(C)C)ccn1	< 10
Cc1n[nH]cc1-c1ccnc(NCCCn2ccnc2)n1	< 10
COc1ccc(CNc2nccc(-c3c[nH]nc3C)n2)cc1	< 15
Cc1n[nH]cc1-c1ccnc(NCCCO)n1	< 15
CC(C)c1[nH]ncc1-c1ccnc(NC(CO)C(C)C)c1 (stereo unspecified)	< 15
CC(C)c1[nH]ncc1-c1ccnc(NCCCO)c1	< 5
Cc1ccccc1CNc1cc(-c2cn[nH]c2C2CC2)ccn1	< 5
CC(C)c1[nH]ncc1-c1ccnc(NCCN2CCOCC2)c1	< 10
COCCCNc1cc(-c2cn[nH]c2C(C)C)ccn1	< 5
Cc1n[nH]cc1-c1ccnc(NC2CCN(Cc3ccccc3)C2)n1 (stereo unspecified)	< 10
CC(C)c1n[nH]cc1-c1ccnc(NCCCN(C)C)n1	< 10
CC(C)c1n[nH]cc1-c1ccnc(NC(C)c2ccccn2)n1 (stereo unspecified)	< 10
CC(C)c1[nH]ncc1-c1ccnc(NCc2ccccc2)c1	< 5
CC(C)c1n[nH]cc1-c1ccnc(NCCCNC2CCCCC2)n1	< 10
CC(C)c1[nH]ncc1-c1ccnc(NC2CCN(C)CC2)c1	< 15
Cc1n[nH]cc1-c1ccnc(NC2CCCNC2)n1 (stereo unspecified)	< 5
CC(C)c1[nH]ncc1-c1ccnc(NCc2ccccc2C(F)(F)F)c1	< 5
CC(C)c1[nH]ncc1-c1ccnc(NCC2CCCCCC2)c1	< 5
c1cc(-c2cn[nH]c2C2CCCC2)cc(NCC2CC2)n1	< 5
Cc1n[nH]cc1-c1ccnc(NC2CCc3ccccc32)n1 (stereo unspecified)	< 10
CC(C)c1[nH]ncc1-c1ccnc(NC2CCc3ccccc32)c1 (stereo unspecified)	< 5
Cc1n[nH]cc1-c1ccnc(NCc2ccccc2)n1	< 15
Cc1n[nH]cc1-c1ccnc(NC2CCCCCC2)n1	< 5

Second part, the compound after the results:

IC50 [µM]	SMILES
< 1	c1cc(-c2cn[nH]c2C2CCCC2)cc(NC2CC2)n1
< 1	CC(C)c1n[nH]cc1-c1ccnc(NC2CCNCC2)n1
< 5	CC(C)c1n[nH]cc1-c1ccnc(NC2CC(C)(C)c3ccccc32)n1 (stereo unspecified)
< 5	CC(C)c1[nH]ncc1-c1ccnc(NCC2CCCCC2)c1
< 5	CC(C)c1nn(C)cc1-c1ccnc(NC2CCN(C)CC2)n1
< 1	CC(C)c1n[nH]cc1-c1ccnc(NCc2ccccc2Cl)n1
< 5	Cc1n[nH]cc1-c1ccnc(NC2CCN(c3ccccc3)CC2)n1
< 5	CC(C)c1[nH]ncc1-c1ccnc(NCc2ccco2)c1
< 0.5	CC(C)c1n[nH]cc1-c1ccnc(NC2CCc3cc(Cl)ccc32)n1 (stereo unspecified)
< 1	c1cc(-c2cn[nH]c2C2CCCC2)cc(NC2CCCCC2)n1
< 0.5	CC(C)CNc1cc(-c2cn[nH]c2C(C)C)ccn1
< 5	Cc1n[nH]cc1-c1ccnc(NC2Cc3ccccc3C2)n1
< 5	CC(C)c1n[nH]cc1-c1ccnc(N[C@H](C)c2ccccn2)n1
< 1	c1cc(-c2cn[nH]c2C2CCCC2)cc(NC2CCCCCC2)n1
< 5	CC(C)CCNc1cc(-c2cn[nH]c2C(C)C)ccn1
< 5	Cc1cnc(NC2CCN(C)CC2)nc1-c1c[nH]nc1C(C)C
< 5	CCC(C)c1[nH]ncc1-c1ccnc(NCc2ccccc2C)c1 (stereo unspecified)
< 0.5	CC(C)c1[nH]ncc1-c1ccnc(NC2CCCCCC2)c1
< 0.05	CC(C)c1n[nH]cc1-c1ccnc(NC2CCCCC2)n1
< 1	CCC(C)Nc1cc(-c2cn[nH]c2C(C)C)ccn1 (stereo unspecified)
< 0.5	c1cc(-c2cn[nH]c2C2CCCC2)cc(NC2CCC2)n1
< 0.5	CC(C)c1n[nH]cc1-c1ccnc(N[C@H]2CCCc3ccccc32)n1
< 1	CC(C)c1n[nH]cc1-c1ccnc(NC2CCN(C(=O)OC(C)(C)C)CC2)n1
